Measurements published in PubChem BioAssay (NCI).
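GI50 marks 50% less growth. The concentration for full growth arrest is given as TGI.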

Columns and labels:
Experiment in all cases: NCI-60 cell line screen, 384-well format
[1] = test system: SW-620 colon
[2] = test system: OVCAR-3 ovarian
[3] = test system: SNB-19 CNS
[4] = test system: TK-10 renal
[5] = test system: EKVX NSCLC
[6] = test system: COLO 205 colon
[7] = test system: RPMI-8226 leukemia
[8] = test system: T-47D breast
[9] = test system: K-562 leukemia
[10] = test system: HOP-92 NSCLC
[11] = test system: RXF 393 renal
[12] = test system: MALME-3M melanoma
[13] = test system: MOLT-4 leukemia
[14] = test system: SK-MEL-28 melanoma
[15] = test system: SK-OV-3 ovarian
[16] = test system: NCI-H23 lung
[17] = test system: DU-145 prostate
[18] = test system: SK-MEL-2 melanoma
[19] = test system: NCI-H522 lung
[20] = test system: KM12 colon
[21] = test system: LOX IMVI melanoma
[22] = test system: MDA-MB-231 breast
[23] = test system: NCI/ADR-RES ovarian
[24] = test system: SF-295 CNS
[25] = test system: OVCAR-8 ovarian
[26] = test system: CAKI-1 renal
[27] = test system: U251 glioblastoma
[28] = test system: PC-3 prostate
[29] = test system: A498 renal

SMILES: CC[C@@]1(O)C(=O)OCc2c1cc1n(c2=O)Cc2c-1nc1cc(F)c(C)c3c1c2[C@@H](NC(=O)CO)CC3
- GI50 [1]: < 0.01 µM
- TGI [1]: 0.223 µM
- GI50 [2]: < 0.01 µM
- TGI [2]: 0.0384 µM
- GI50 [3]: < 0.01 µM
- TGI [3]: 0.0127 µM
- GI50 [4]: 0.0476 µM
- TGI [4]: 1.66 µM
- GI50 [5]: 0.0429 µM
- TGI [5]: 2.65 µM
- GI50 [6]: < 0.01 µM
- TGI [6]: 0.537 µM
- GI50 [7]: < 0.01 µM
- TGI [7]: 0.0206 µM
- GI50 [8]: < 0.01 µM
- TGI [8]: 0.101 µM
- GI50 [9]: < 0.01 µM
- TGI [9]: 0.171 µM
- GI50 [10]: < 0.01 µM
- TGI [10]: 0.0589 µM
- GI50 [11]: < 0.01 µM
- TGI [11]: < 0.01 µM
- GI50 [12]: < 0.01 µM
- TGI [12]: 0.237 µM
- GI50 [13]: < 0.01 µM
- TGI [13]: < 0.01 µM
- GI50 [14]: < 0.01 µM
- TGI [14]: 0.27 µM
- GI50 [15]: < 0.01 µM
- TGI [15]: 0.0281 µM
- GI50 [16]: < 0.01 µM
- TGI [16]: < 0.01 µM
- GI50 [17]: < 0.01 µM
- TGI [17]: < 0.01 µM
- GI50 [18]: 0.0331 µM
- TGI [18]: 0.105 µM
- GI50 [19]: < 0.01 µM
- TGI [19]: 0.019 µM
- GI50 [20]: 0.0116 µM
- TGI [20]: 0.149 µM
- GI50 [21]: < 0.01 µM
- TGI [21]: 0.0375 µM
- GI50 [22]: 0.0996 µM
- TGI [22]: 1.52 µM
- GI50 [23]: 0.0536 µM
- TGI [23]: 0.256 µM
- GI50 [24]: < 0.01 µM
- TGI [24]: < 0.01 µM
- GI50 [25]: < 0.01 µM
- TGI [25]: 0.104 µM
- GI50 [26]: < 0.01 µM
- TGI [26]: 0.103 µM
- GI50 [27]: < 0.01 µM
- TGI [27]: 0.0136 µM
- GI50 [28]: 0.0973 µM
- TGI [28]: 3.88 µM
- GI50 [29]: < 0.01 µM
- TGI [29]: 0.142 µM
